Measured values reported in patent publication US20090137661A1, “PLANT DERIVED COMPOUNDS AND COMPOUND FORMULAE CONTAINING THE SAME FOR THE TREATMENT OF CERVICAL CANCER” (priority 2007, published 2009).
Converted amounts (≈) assume the structure as drawn. Where a name gives a salt, the structure may show the parent alone. Read-outs that look alike come from different tables or passages of the source.

How the values were obtained:
HUVEC cells = experiment: Cytotoxicity assay (MTT assay) on HUVEC cells; type: cell-based, human; details: for IC50: Homo sapiens
Excerpt: Human umbilical vein endothelial cells (HUVEC) were purchased from Food Industry Research and Development Institute in Hsin-Chu City, Taiwan. HUVEC cells were propagated and maintained in Medium 199 supplemented with 10% FBS, Heparin, and […].
(§1) Cytotoxicity Assay (MTT Assay)

HeLa cells = experiment: Cytotoxicity assay (MTT assay) on HeLa cells; details: for IC50: Homo sapiens, HeLa
Description: HeLa cell line was obtained from Dr. S. S. Shen (Biomedical Engineering Research Laboratories of Industrial Technology Research Institute of Taiwan). HeLa cells are adherent cells and were propagated and maintained in Dulbecco's modified Eagle's medium (DMEM) supplemented with 10% fetal bovine serum (FBS), […] sodium bicarbonate (NaHCO3), 1 mM sodium pyruvate, and 0.1 mM non-essential amino acid.
as §1
The cytotoxicity of the compounds set forth herein to HeLa cells and HUVEC cells were determined by the MTT assay. The HUVEC cells were used to understand the cytotoxicity of said compounds to normal human cells. Besides, doxorubicin HCl was used as a comparative example so as to investigate the efficacy of the compounds according to the embodiments of the present invention.
Briefly, the MTT assay comprises the following steps: • (A) Cells were seeded in 96-well plates 3 hours before treatment, wherein the density of HeLa cell is 1×10^4 cells per well and the density of HUVEC cell is 2×10^4 cells per well; • (B) Cells were then treated with various concentrations of tested samples and incubated for a predetermined period (24, 48, and 72 hours); • (C) After the predetermined periods expired, the tested samples were removed and 100 μl MTT reagent (1 mg/ml) was added to each well; • (D) The plates were incubated at 37° C. with 5% of CO2 for 5 hours; • (E) The MTT reagent was removed and 100 μl DMSO was added to each well; • (F) The optical density (O.D.) of each well was determined by ELISA reader at a wavelength of 560 nm.
Each experiment was repeated for 3 times and the result shown in the tables herein were the mean value of the 3 repetitions. The O.D. of the vehicle control and experimental groups were recorded. The cell survival rate of each sample was calculated as follows:
Cell survival rate(%)=O.D.control/O.D.experimental*100%
Then, the cell survival rate was plotted against the compound concentration and the IC50 value of each compound was calculated by the GraFit data analysis software (Erithacus Software Ltd.).

[1] = HUVEC cells, 24 hours, read-out: IC50 at 24 hours, HUVEC
[2] = HUVEC cells, 48 hours, read-out: IC50 at 48 hours, HUVEC
[3] = HUVEC cells, 72 hours, read-out: IC50 at 72 hours, HUVEC
[4] = 24 h, read-out: IC50 at 24 hours, HeLa
[5] = 48 h, read-out: IC50 at 48 hours, HeLa
[6] = 72 h, read-out: IC50 at 72 hours, HeLa

## O=C(O)[C@H]1O[C@@H](Oc2cc3oc(-c4ccccc4)cc(=O)c3c(O)c2O)[C@H](O)[C@@H](O)[C@@H]1O [Compound G, baicalin]
HUVEC cells; 1.25 μg/ml, 24 hrs
  HUVEC Cell Survival Rate: 98%
HUVEC cells; 1.25 μg/ml, 48 hrs
  HUVEC Cell Survival Rate: 96%
HUVEC cells; 1.25 μg/ml, 72 hrs
  HUVEC Cell Survival Rate: 88%
HUVEC cells; 12.5 μg/ml, 24 hrs
  HUVEC Cell Survival Rate: 97%
HUVEC cells; 12.5 μg/ml, 48 hrs
  HUVEC Cell Survival Rate: 101%
HUVEC cells; 12.5 μg/ml, 72 hrs
  HUVEC Cell Survival Rate: 75%
HUVEC cells; 125 μg/ml, 24 hrs
  HUVEC Cell Survival Rate: 81%
HUVEC cells; 125 μg/ml, 48 hrs
  HUVEC Cell Survival Rate: 76%
HUVEC cells; 125 μg/ml, 72 hrs
  HUVEC Cell Survival Rate: 56%
HUVEC cells; [1]
  IC50: > 125 µg/mL
HUVEC cells; [2]
  IC50: > 125 µg/mL
HUVEC cells; [3]
  IC50: 218 µg/mL (≈ 488 µM)
HeLa cells; 0.1 μg/ml, 24 hrs
  HeLa Cell Survival Rate: 104%
HeLa cells; 0.1 μg/ml, 48 hrs
  HeLa Cell Survival Rate: 94%
HeLa cells; 0.1 μg/ml, 72 hrs
  HeLa Cell Survival Rate: 97%
HeLa cells; 1 μg/ml, 24 hrs
  HeLa Cell Survival Rate: 103%
HeLa cells; 1 μg/ml, 48 hrs
  HeLa Cell Survival Rate: 96%
HeLa cells; 1 μg/ml, 72 hrs
  HeLa Cell Survival Rate: 97%
HeLa cells; 10 μg/ml, 24 hrs
  HeLa Cell Survival Rate: 109%
HeLa cells; 10 μg/ml, 48 hrs
  HeLa Cell Survival Rate: 98%
HeLa cells; 10 μg/ml, 72 hrs
  HeLa Cell Survival Rate: 97%
HeLa cells; 100 μg/ml, 24 hrs
  HeLa Cell Survival Rate: 68%
HeLa cells; 100 μg/ml, 48 hrs
  HeLa Cell Survival Rate: 50%
HeLa cells; 100 μg/ml, 72 hrs
  HeLa Cell Survival Rate: 37%
HeLa cells; 72 hours
  HUVEC/HeLa ratio of IC50: 2.4
HeLa cells; [4]
  IC50: > 125 µg/mL
HeLa cells; [5]
  IC50: > 125 µg/mL
HeLa cells; [6]
  IC50: 92 µg/mL (≈ 206 µM)

## COc1ccc2cc3[n+](cc2c1OC)CCc1cc2c(cc1-3)OCO2.[Cl-] [Compound H, berberine hydrochloride]
HUVEC cells; 1 μg/ml, 24 hrs
  HUVEC Cell Survival Rate: 89%
HUVEC cells; 1 μg/ml, 48 hrs
  HUVEC Cell Survival Rate: 81%
HUVEC cells; 1 μg/ml, 72 hrs
  HUVEC Cell Survival Rate: 77%
HUVEC cells; 10 μg/ml, 24 hrs
  HUVEC Cell Survival Rate: 76%
HUVEC cells; 10 μg/ml, 48 hrs
  HUVEC Cell Survival Rate: 64%
HUVEC cells; 10 μg/ml, 72 hrs
  HUVEC Cell Survival Rate: 51%
HUVEC cells; 100 μg/ml, 24 hrs
  HUVEC Cell Survival Rate: 23%
HUVEC cells; 100 μg/ml, 48 hrs
  HUVEC Cell Survival Rate: 16%
HUVEC cells; 100 μg/ml, 72 hrs
  HUVEC Cell Survival Rate: 15%
HUVEC cells; HUVEC cells, 24 hours
  IC50 at 24 hours, HUVEC: 30 µg/mL
HUVEC cells; HUVEC cells, 48 hours
  IC50 at 48 hours, HUVEC: 15 µg/mL
HUVEC cells; HUVEC cells, 72 hours
  IC50 at 72 hours, HUVEC: 9 µg/mL
HeLa cells
  cytotoxicity to HeLa cells compared with Doxorubicin HCl: higher cytotoxicity
HeLa cells; 0.1 μg/ml, 24 hrs
  HeLa Cell Survival Rate: 89%
HeLa cells; 0.1 μg/ml, 48 hrs
  HeLa Cell Survival Rate: 98%
HeLa cells; 0.1 μg/ml, 72 hrs
  HeLa Cell Survival Rate: 98%
HeLa cells; 1 μg/ml, 24 hrs
  HeLa Cell Survival Rate: 87%
HeLa cells; 1 μg/ml, 48 hrs
  HeLa Cell Survival Rate: 84%
HeLa cells; 1 μg/ml, 72 hrs
  HeLa Cell Survival Rate: 91%
HeLa cells; 10 μg/ml, 24 hrs
  HeLa Cell Survival Rate: 82%
HeLa cells; 10 μg/ml, 48 hrs
  HeLa Cell Survival Rate: 71%
HeLa cells; 10 μg/ml, 72 hrs
  HeLa Cell Survival Rate: 62%
HeLa cells; 100 μg/ml, 24 hrs
  HeLa Cell Survival Rate: 28%
HeLa cells; 100 μg/ml, 48 hrs
  HeLa Cell Survival Rate: 17%
HeLa cells; 100 μg/ml, 72 hrs
  HeLa Cell Survival Rate: 10%
HeLa cells; 24 hours
  HUVEC/HeLa ratio of IC50: 0.8
HeLa cells; 48 hours
  HUVEC/HeLa ratio of IC50: 0.7
HeLa cells; 72 hours
  HUVEC/HeLa ratio of IC50: 0.6
HeLa cells; HeLa cells, 24 hours
  IC50 at 24 hours, HeLa: 39 µg/mL
HeLa cells; HeLa cells, 72 hours
  IC50 at 72 hours, HeLa: 15 µg/mL
HeLa cells; values taken from tables 4 and 5 (48 hours), unit inferred
  IC50 for inhibiting HeLa cells as restated in text: 21 µg/mL

## COc1cccc2c1C(=O)c1c(O)c3c(c(O)c1C2=O)C[C@@](O)(C(=O)CO)C[C@@H]3O[C@H]1C[C@H](N)[C@H](O)[C@H](C)O1 [Doxorubin HCl, Doxorubicin HCl, reference compound]
HUVEC cells; 0.145 μg/ml, 24 hrs
  HUVEC Cell Survival Rate: 111%
HUVEC cells; 0.145 μg/ml, 48 hrs
  HUVEC Cell Survival Rate: 77%
HUVEC cells; 0.145 μg/ml, 72 hrs
  HUVEC Cell Survival Rate: 68%
HUVEC cells; 0.290 μg/ml, 24 hrs
  HUVEC Cell Survival Rate: 100%
HUVEC cells; 0.290 μg/ml, 48 hrs
  HUVEC Cell Survival Rate: 56%
HUVEC cells; 0.290 μg/ml, 72 hrs
  HUVEC Cell Survival Rate: 38%
HUVEC cells; 0.580 μg/ml, 24 hrs
  HUVEC Cell Survival Rate: 90%
HUVEC cells; 0.580 μg/ml, 48 hrs
  HUVEC Cell Survival Rate: 19%
HUVEC cells; 0.580 μg/ml, 72 hrs
  HUVEC Cell Survival Rate: 14%
HUVEC cells; [1]
  IC50: > 0.58 µg/mL
HUVEC cells; [2]
  IC50: 0.299 µg/mL
HUVEC cells; [3]
  IC50: 0.22 µg/mL
HeLa cells; 0.00058 μg/ml, 24 hrs
  HeLa Cell Survival Rate: 96%
HeLa cells; 0.00058 μg/ml, 48 hrs
  HeLa Cell Survival Rate: 100%
HeLa cells; 0.00058 μg/ml, 72 hrs
  HeLa Cell Survival Rate: 97%
HeLa cells; 0.0058 μg/ml, 24 hrs
  HeLa Cell Survival Rate: 95%
HeLa cells; 0.0058 μg/ml, 48 hrs
  HeLa Cell Survival Rate: 92%
HeLa cells; 0.0058 μg/ml, 72 hrs
  HeLa Cell Survival Rate: 89%
HeLa cells; 0.058 μg/ml, 24 hrs
  HeLa Cell Survival Rate: 84%
HeLa cells; 0.058 μg/ml, 48 hrs
  HeLa Cell Survival Rate: 81%
HeLa cells; 0.058 μg/ml, 72 hrs
  HeLa Cell Survival Rate: 72%
HeLa cells; 0.58 μg/ml, 24 hrs
  HeLa Cell Survival Rate: 46%
HeLa cells; 0.58 μg/ml, 48 hrs
  HeLa Cell Survival Rate: 23%
HeLa cells; 0.58 μg/ml, 72 hrs
  HeLa Cell Survival Rate: 11%
HeLa cells; 24 hours
  HUVEC/HeLa ratio of IC50: >1.2
HeLa cells; 48 hours
  HUVEC/HeLa ratio of IC50: 1.5
HeLa cells; 72 hours
  HUVEC/HeLa ratio of IC50: 1.8
HeLa cells; [4]
  IC50: 0.48 µg/mL
HeLa cells; [5]
  IC50: 0.2 µg/mL
HeLa cells; [6]
  IC50: 0.12 µg/mL
